Columns and labels:
[1] = Metabolic stability in human liver microsomes assessed as half life incubated at 0.5 uM for 10 mins in presence of NADPH by LC-MS/MS analysis; assay type: ADME, Microsome
[2] = Cardiotoxicity in aortic ring (unknown origin) assessed as relaxation of phenylephrine induced aortic ring contraction at 10 uM incubated for 1 hr; assay type: toxicity, tissue-based, Aorta; parameters: scale not given: the % may be the effect or the level left; settings: human
[3] = Total body clearance in rat at 3 mg/kg, po or 2 mg/kg, iv; assay type: ADME, organism-based; settings: in vivo, read-out: CLt/F
[4] = Metabolic stability in cynomolgus monkey liver microsomes assessed as half life incubated at 0.5 uM for 10 mins in presence of NADPH by LC-MS/MS analysis; assay type: ADME, Macaca fascicularis, Microsome
[5] = Oral bioavailability in rat at 3 mg/kg or 2 mg/kg,iv; assay type: ADME, organism-based; settings: in vivo
[6] = Permeability across apical to basolateral side in human Caco-2 cells; assay type: ADME, cell-based; settings: read-out: permeability
[7] = Metabolic stability in rat liver microsomes assessed as half life incubated at 0.5 uM for 10 mins in presence of NADPH by LC-MS/MS analysis; assay type: ADME, Microsome
[8] = biological target: AP2-associated protein kinase 1 (Mus musculus, UniProt Q3UHJ0); experiment: Displacement of 3H-LP-927443 from AAK1 in C57BL6 mouse brain homogenate assessed as inhibition constant incubated for 1 hr by liquid scintillation counter analysis; assay type: tissue-based
[9] = Inhibition of calcium channel (unknown origin); parameters: species or system Homo sapiens
[10] = Metabolic stability in mouse liver microsomes assessed as parent compound remaining at 0.5 uM incubated for 10 mins in presence of NADPH by LC-MS/MS analysis; assay type: ADME, Microsome; settings: for remaining at 10 min, 0.5 µM: liver microsomes, read-out: Stability
[11] = Half life in rat at 3 mg/kg, po or 2 mg/kg, iv; assay type: ADME, organism-based; settings: in vivo
[12] = biological target: T1, Cyclin-G-associated kinase (Homo sapiens, UniProt O14976); experiment: Inhibition of GAK (unknown origin)
T1 sequence (O14976 whole entry): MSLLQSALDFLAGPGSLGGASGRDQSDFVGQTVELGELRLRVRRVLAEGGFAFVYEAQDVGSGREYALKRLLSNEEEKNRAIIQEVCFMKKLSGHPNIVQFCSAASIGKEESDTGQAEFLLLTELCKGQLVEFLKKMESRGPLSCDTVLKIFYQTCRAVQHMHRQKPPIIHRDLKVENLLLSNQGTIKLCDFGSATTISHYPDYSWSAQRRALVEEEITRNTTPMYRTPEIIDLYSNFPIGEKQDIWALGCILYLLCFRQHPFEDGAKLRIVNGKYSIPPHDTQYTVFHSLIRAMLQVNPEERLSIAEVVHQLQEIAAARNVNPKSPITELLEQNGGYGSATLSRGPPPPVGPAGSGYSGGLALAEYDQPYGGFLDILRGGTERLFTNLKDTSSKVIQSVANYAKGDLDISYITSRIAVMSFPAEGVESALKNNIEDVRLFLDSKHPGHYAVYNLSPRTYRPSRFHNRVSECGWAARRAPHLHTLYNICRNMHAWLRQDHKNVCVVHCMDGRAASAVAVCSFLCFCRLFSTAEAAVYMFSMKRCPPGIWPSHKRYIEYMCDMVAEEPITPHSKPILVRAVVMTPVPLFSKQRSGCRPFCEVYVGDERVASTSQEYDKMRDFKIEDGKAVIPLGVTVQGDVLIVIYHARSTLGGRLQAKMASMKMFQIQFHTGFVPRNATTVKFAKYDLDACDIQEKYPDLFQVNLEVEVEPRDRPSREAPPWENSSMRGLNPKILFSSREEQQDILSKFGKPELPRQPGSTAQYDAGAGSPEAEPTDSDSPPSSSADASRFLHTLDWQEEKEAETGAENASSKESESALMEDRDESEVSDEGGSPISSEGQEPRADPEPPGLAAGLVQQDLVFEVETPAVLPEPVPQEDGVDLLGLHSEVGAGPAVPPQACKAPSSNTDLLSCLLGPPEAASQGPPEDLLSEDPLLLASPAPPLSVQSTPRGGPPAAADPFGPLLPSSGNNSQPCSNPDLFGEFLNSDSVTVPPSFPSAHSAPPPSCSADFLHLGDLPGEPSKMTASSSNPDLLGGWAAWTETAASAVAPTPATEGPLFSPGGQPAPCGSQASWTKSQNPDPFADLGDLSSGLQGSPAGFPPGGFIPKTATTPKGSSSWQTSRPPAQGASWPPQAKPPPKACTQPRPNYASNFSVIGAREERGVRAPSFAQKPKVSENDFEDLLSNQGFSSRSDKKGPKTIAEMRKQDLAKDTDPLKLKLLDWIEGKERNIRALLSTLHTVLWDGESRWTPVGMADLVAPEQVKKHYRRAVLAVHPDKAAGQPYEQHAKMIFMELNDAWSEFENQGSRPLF

[13] = Protein binding in rat plasma assessed as unbound fraction measured after 3 hrs by LC/MS/MS analysis; assay type: ADME, cell-free
[14] = biological target: MAP kinase-interacting serine/threonine-protein kinase 2 (Homo sapiens, UniProt Q9HBH9); experiment: Inhibition of MNK2 (unknown origin)
[15] = Permeability across basolateral to apical side in human Caco-2 cells; assay type: ADME, cell-based; settings: read-out: permeability
[16] = Protein binding in human plasma assessed as unbound fraction measured after 3 hrs by LC/MS/MS analysis; assay type: ADME, cell-free
[17] = biological target: Cytochrome P450 2C9 (Homo sapiens, UniProt P11712); experiment: Inhibition of CYP2C9 (unknown origin) incubated for 10 mins in presence of NADPH by LC-MS/MS analysis; assay type: ADME
[18] = Efflux ratio of permeability in human Caco-2 cells; assay type: ADME, cell-based
[19] = biological target: T2, Cytochrome P450 1A2 (Homo sapiens, UniProt P05177); experiment: Inhibition of CYP1A2 (unknown origin) incubated for 10 mins in presence of NADPH by LC-MS/MS analysis; assay type: ADME
T2 sequence (P05177 whole entry): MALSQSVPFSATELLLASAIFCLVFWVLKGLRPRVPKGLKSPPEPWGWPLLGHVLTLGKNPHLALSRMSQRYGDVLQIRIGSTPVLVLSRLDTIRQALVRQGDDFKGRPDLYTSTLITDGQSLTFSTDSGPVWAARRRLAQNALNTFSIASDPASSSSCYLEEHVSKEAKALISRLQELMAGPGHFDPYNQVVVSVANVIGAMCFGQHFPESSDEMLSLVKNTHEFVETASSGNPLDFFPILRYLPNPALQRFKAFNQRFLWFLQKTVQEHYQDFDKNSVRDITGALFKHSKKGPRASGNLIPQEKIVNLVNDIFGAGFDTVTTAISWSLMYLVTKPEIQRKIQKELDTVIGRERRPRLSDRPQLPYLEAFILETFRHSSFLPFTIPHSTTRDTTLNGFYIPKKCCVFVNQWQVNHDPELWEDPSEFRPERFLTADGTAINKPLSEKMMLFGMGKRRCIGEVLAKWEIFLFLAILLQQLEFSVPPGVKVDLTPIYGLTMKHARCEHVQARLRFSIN

Sequence of Cytochrome P450 2C9 (P11712 whole entry): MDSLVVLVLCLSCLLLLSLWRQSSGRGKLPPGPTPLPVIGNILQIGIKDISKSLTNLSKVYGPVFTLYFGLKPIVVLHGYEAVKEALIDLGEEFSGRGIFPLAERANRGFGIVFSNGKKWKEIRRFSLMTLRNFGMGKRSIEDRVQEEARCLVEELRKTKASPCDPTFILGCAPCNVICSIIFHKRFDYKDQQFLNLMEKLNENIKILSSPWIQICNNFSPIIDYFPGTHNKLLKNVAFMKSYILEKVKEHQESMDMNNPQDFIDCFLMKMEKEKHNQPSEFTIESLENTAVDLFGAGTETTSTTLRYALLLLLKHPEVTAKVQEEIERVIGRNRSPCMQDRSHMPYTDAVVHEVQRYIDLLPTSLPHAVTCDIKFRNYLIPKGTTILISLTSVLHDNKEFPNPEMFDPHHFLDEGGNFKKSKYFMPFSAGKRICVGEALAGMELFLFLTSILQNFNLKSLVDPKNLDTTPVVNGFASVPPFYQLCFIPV
Sequence of MAP kinase-interacting serine/threonine-protein kinase 2 (Q9HBH9 whole entry): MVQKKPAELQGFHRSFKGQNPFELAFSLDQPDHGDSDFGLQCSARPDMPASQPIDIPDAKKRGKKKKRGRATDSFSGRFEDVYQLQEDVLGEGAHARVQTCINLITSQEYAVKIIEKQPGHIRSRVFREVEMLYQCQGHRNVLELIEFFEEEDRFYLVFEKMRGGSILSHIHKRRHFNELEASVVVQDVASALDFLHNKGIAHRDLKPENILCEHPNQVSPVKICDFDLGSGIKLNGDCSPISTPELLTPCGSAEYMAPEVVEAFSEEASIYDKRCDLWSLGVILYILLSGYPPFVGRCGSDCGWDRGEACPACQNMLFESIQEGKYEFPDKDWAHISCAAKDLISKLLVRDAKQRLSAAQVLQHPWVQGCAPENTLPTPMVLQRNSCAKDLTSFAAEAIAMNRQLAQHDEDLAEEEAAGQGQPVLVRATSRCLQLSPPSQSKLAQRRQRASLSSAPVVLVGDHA
Sequence of AP2-associated protein kinase 1 (Q3UHJ0 whole entry): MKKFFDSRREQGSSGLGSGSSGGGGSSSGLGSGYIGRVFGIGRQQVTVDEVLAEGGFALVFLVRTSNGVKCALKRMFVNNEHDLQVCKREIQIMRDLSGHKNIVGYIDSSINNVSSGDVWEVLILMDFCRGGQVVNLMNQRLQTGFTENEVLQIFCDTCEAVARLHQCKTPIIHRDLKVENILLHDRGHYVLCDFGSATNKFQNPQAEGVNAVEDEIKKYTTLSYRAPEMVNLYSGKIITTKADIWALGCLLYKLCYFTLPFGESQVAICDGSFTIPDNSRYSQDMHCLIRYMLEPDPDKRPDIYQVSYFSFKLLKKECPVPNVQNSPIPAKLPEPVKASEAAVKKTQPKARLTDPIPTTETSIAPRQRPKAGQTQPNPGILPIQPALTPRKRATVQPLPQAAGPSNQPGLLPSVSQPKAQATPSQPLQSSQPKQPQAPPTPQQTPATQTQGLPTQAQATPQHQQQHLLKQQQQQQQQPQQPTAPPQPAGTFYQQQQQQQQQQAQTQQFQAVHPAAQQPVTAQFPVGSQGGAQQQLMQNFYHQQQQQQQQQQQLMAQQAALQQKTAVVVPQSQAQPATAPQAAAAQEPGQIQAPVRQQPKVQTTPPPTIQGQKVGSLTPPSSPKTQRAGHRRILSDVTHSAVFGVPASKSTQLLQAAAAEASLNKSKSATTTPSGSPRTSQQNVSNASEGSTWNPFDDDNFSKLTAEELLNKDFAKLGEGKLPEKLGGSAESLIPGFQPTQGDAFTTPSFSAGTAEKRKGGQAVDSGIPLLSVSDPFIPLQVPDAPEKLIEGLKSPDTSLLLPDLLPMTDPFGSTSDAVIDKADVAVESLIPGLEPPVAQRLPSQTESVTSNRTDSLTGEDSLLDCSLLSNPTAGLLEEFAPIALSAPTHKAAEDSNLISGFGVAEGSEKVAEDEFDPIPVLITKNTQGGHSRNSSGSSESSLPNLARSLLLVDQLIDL

Row | half-life at 0.5 µM [1] [h] | CL/F [3] [mL/min/kg] | half-life at 0.5 µM [4] [h] | bioavailability [5] [%] | Papp A→B [6] [×10⁻⁶ cm/s] | half-life at 0.5 µM [7] [h] | Ki [8] [nM] | IC50 [9] [nM] | Stability ([10]; microsomes, 10 min, 0.5 µM) [%] | half-life [11] [h] | IC50 [12] [nM] | fraction unbound at 3 h [13] | IC50 [14] [nM] | Papp B→A [15] [×10⁻⁶ cm/s] | fraction unbound at 3 h [16] | IC50 [17] [nM] | efflux ratio [18] | IC50 [19] [nM] | remaining at 10 min, 0.5 µM [10] [%] | Compound | Activity [2] [%]
1 | > 2 | 63.6 | 1.28 | 77 | 17.2 | 0.7 | 0.21 | 35300 | 68 | 7.55 | 440 | 0.105 | 1300 | 17.3 | 0.115 | > 20000 | 1 | > 20000 |  | COC(=O)Nc1cc(-c2cnc(OC[C@@](C)(N)CC(C)C)c(C)c2)ccn1 | 66
2 | > 2 | 17.3 | 0.85 | 94 | 35.7 | 1.42 | 0.29 | 16000 |  | 11.3 | 210 | 0.225 | 1500 | 38.4 | 0.18 | > 20000 | 1.1 | > 20000 | 93 | COC(=O)Nc1cc(-c2ccc(OC[C@@](C)(N)CC(C)C)c(C)n2)ccn1 | 36
3 | > 2 | 119 | 0.293 | 22 | 23.5 | 1.27 | 0.05 | 18800 |  | 5.02 | 400 | 0.122 | 1600 | 15.3 | 0.125 | > 20000 | 0.7 | > 20000 | 89 | CC(C)C[C@](C)(N)COc1cnc(-c2ccnc(C(F)F)c2)cc1C(F)F | 58

Source: ChEMBL document CHEMBL5154787 (J Med Chem, 2022)
